Assay results from US10188656B2, “Methods of treatment of malignancies” (Agios Pharmaceuticals, Inc., priority 2015, dated 2019).

How the values were obtained:
Format in all cases: in vivo, human
2-HG plasma levels = assay: Phase 1/2 study: pharmacodynamic response, 2-HG plasma levels; conditions: most subjects with R140Q mutation, all doses; sustained reduction by Day 1 of Cycle 2
Experimental: Subjects in the dose escalation phase and Part 1 Expansion also will undergo PK/PD assessments over a 10-hour period on C1D15, C2D1, and C4D1. […] These subjects will have urine collected for PK/PD evaluation at screening; prior to dosing on C1D15, C2D1 and Day 1 of all cycles thereafter; and at the End of Treatment visit. Available bone marrow biopsy samples also will be assessed for 2-HG and α-KG levels.
The starting dose of COMPOUND 1 recommended for evaluation is 100 mg QD. This is based on the safety, PK, pharmacodynamics and clinical activity of COMPOUND 1 observed to date in AG221-C-001. […] Thus a dose of 100 mg should adequately achieve inhibition of 2-HG in subjects with either R140Q or R172K mutation.
Serial blood sampling for determination of concentration-time profiles of COMPOUND 1 and its metabolite (6-(6-(trifluoromethyl)pyridin-2-yl)-N2-(2-(trifluoromethyl)pyridin-4-yl)-1,3,5-triazine-2,4-diamine). Urine sampling for determination of concentrations of COMPOUND 1 and its metabolite (6-(6-(trifluoromethyl)pyridin-2-yl)-N2-(2-(trifluoromethyl)pyridin-4-yl)-1,3,5-triazine-2,4-diamine) (dose escalation and Part 1 expansion subjects only). Blood and bone marrow sampling for determination of 2-HG and α-KG levels.

[1] = Phase 1/2 study: safety (AEs, NCI CTCAE v4.03); conditions: 100 mg, including ≥Grade 3
Description: Monitoring of AEs, including determination of DLTs, serious adverse events (SAEs), and AEs leading to discontinuation; safety laboratory parameters; physical examination findings; vital signs; 12-lead ECGs; LVEF; and ECOG PS.
The severity of AEs will be assessed by the NCI CTCAE, Version 4.03.

[2] = tested on: advanced hematologic malignancies with an IDH2 mutation; assay: Example 2: NRAS mutation status at screening versus COMPOUND 1 response (next generation sequencing, Fisher's exact test)
Experimental: A subset of the clinical samples from the trial described in Example 1 were analyzed at screening. Sample types included bone marrow, peripheral blood and mononuclear cells isolated from bone marrow or peripheral blood. DNAs were extracted from these samples and sequenced at Foundation Medicine (see http://foundationone.com/learn.php) using next generation sequencing technique.
A total of 60 genes were identified to carry at least one mutation in the analyzed set (including IDH2 gene). Fisher's exact test was conducted to evaluate the association of somatic mutations with clinical response (responders include CR, CRp, CRi and PR, indicated as +, while none-responders include SD and PD, indicated as − in Table 9). The P-values were adjusted by multiple-test correction.
Mutation status positive (+) means any known mutation(s) in NRAS, and negative (−) means no mutation in NRAS was present.
Positive response status (+) includes CR, mCR and PR and negative response status (−) includes stable disease (SD) and pregressive disease (PD).

[3] = tested on: rrAML with an IDH2 mutation; assay: Example 5: FoundationOne Heme panel co-mutations versus response to COMPOUND 1 in rrAML patients
Experimental: FoundationOne Heme panel analysis was performed on 100 screening samples from rrAML patients in the trial described in Example 1. Sample types included peripheral blood and bone marrow.
While rare, co-occurring mutations in TET2 (5 patients) and IDH1 (4 patients) were also observed in this cohort. Mechanistically, mutations in these genes may counteract the efficacy of COMPOUND 1; however, presence of either of these mutated genes was not associated with significant decrease in ORR or complete response (CR) (Table 10).
To further investigate the association between NRAS mutations and ORR to COMPOUND 1, a more detailed analysis of individual mutation sites was performed. NRAS mutations at G12, G13, and Q61 are the most highly characterized sites known to result in constitutive RAS signaling, see Prior I A, Lewis P D, Mattos C. A comprehensive survey of Ras mutations in cancer, Cancer Res. 2012; 72(10):2457-67. When mutations at these sites were analyzed versus ORR to COMPOUND 1, the observed decrease in ORR became statistically significant (p=0.002, see, FIG. 9A and Table 11). Table 11 provides a contingency table indicating statistical significance of lower overall response rate seen in patients presenting with an NRAS co-mutation.

[4] = rrAML, co-occurring ASXL1 mutation
[5] = rrAML, co-occurring ATM mutation
[6] = rrAML, co-occurring BCOR mutation
[7] = rrAML, co-occurring BCORL1 mutation
[8] = rrAML, co-occurring CBL mutation
[9] = rrAML, co-occurring CEBPA mutation
[10] = rrAML, co-occurring CUX1 mutation
[11] = rrAML, co-occurring DNMT3A mutation
[12] = rrAML, co-occurring ETV6 mutation
[13] = rrAML, co-occurring EZH2 mutation
[14] = rrAML, co-occurring FLT3 mutation
[15] = rrAML, co-occurring GATA2 mutation
[16] = rrAML, co-occurring IDH1 mutation

Q: Which results are given for CC(C)(O)CNc1nc(Nc2ccnc(C(F)(F)F)c2)nc(-c2cccc(C(F)(F)F)n2)n1 [COMPOUND 1, 2-methyl-1-[(4-[6-(trifluoromethyl)pyridin-2-yl]-6-{[2-(trifluoromethyl)pyridin-4-yl]amino}-1,3,5-triazin-2-yl)amino]propan-2-ol]?
A: inhibition of 2-HG plasma levels (2-HG plasma levels): up to 98%; safety profile [1]: consistent with that of lower doses; number of patients ([2]; response status +, NRAS mutation +): 2; number of patients ([2]; response status +, NRAS mutation −): 55; number of patients ([2]; response status − (SD, PD), NRAS mutation +): 21; number of patients ([2]; response status − (SD, PD), NRAS mutation −): 40; number of patients, No Response ([3]; NRAS mt (G12, G13, Q61)): 13; number of patients, Response ([3]; NRAS mt (G12, G13, Q61)): 1; number of patients, No Response ([3]; NRAS wt): 37; number of patients, Response ([3]; NRAS wt): 40; ORR ([3]; patients with the least (≤3) co-occurring mutations): 69.2%; ORR ([3]; patients with the most (≥6) co-occurring mutations): 23.3%; CR [3, 4]: 0.269; CR, OR [3, 4]: 0.583; ORR [3, 4]: 0.385; ORR, OR [3, 4]: 0.784; ORR ([3]; rrAML, co-occurring ASXL1 mutation (text)): 39%; CR [3, 5]: 0.500; CR, OR [3, 5]: 1.721; ORR [3, 5]: 0.500; ORR, OR [3, 5]: 1.306; CR [3, 6]: 0.308; CR, OR [3, 6]: 0.743; ORR [3, 6]: 0.385; ORR, OR [3, 6]: 0.800; CR [3, 7]: 0.000; CR, OR [3, 7]: 0.334; ORR [3, 7]: 0.000; ORR, OR [3, 7]: 0.254; CR [3, 8]: 0.333; CR, OR [3, 8]: 0.853; ORR [3, 8]: 0.333; ORR, OR [3, 8]: 0.646; CR [3, 9]: 0.167; CR, OR [3, 9]: 0.331; ORR [3, 9]: 0.167; ORR, OR [3, 9]: 0.250; CR [3, 10]: 0.500; CR, OR [3, 10]: 1.721; ORR [3, 10]: 0.500; ORR, OR [3, 10]: 1.306; CR [3, 11]: 0.359; CR, OR [3, 11]: 0.945; ORR [3, 11]: 0.513; ORR, OR [3, 11]: 1.509; CR [3, 12]: 0.000; CR, OR [3, 12]: 0.334; ORR [3, 12]: 0.500; ORR, OR [3, 12]: 1.306; CR [3, 13]: 0.200; CR, OR [3, 13]: 0.418; ORR [3, 13]: 0.200; ORR, OR [3, 13]: 0.316; CR [3, 14]: 0.200; CR, OR [3, 14]: 0.408; ORR [3, 14]: 0.200; ORR, OR [3, 14]: 0.306; CR [3, 15]: 0.000; CR, OR [3, 15]: 0.334; ORR [3, 15]: 0.000; ORR, OR [3, 15]: 0.254; CR [3, 16]: 0.250; CR, OR [3, 16]: 0.563; ORR [3, 16]: 0.500; ORR, OR [3, 16]: 1.310; CR ([3]; rrAML, co-occurring JAK2 mutation): 0.000
